Assay: xn = mol fraction of the nth substance listed
Settings: 100 kPa, Liquid; for speed of sound: Frequency=2 MHz, Linear variable-path acoustic interferometer; for mass density: Vibrating tube method

Cc1ccccc1O [2-methylphenol] + CCO
Settings	mass density, 303.15 K [kg/m3]	mass density, 308.15 K [kg/m3]	mass density, 313.15 K [kg/m3]	mass density, 318.15 K [kg/m3]	speed of sound, 303.15 K [m/s]	speed of sound, 313.15 K [m/s]
x2 = 0	1037.02	1032.58	1028.19	1023.82	1488.1	1453
x2 = 0.1387	1015.95	1011.54	1007.18	1002.83	1435.4	1401.2
x2 = 0.2617	994.82	990.39	986.02	981.62	1391.2	1355.4
x2 = 0.3713	973.68	969.21	964.81	960.38	1351.2	1314.6
x2 = 0.4698	952.47	947.97	943.57	939.1	1314.2	1277.9
x2 = 0.5586	931.22	926.73	922.33	917.85	1280.2	1245
x2 = 0.6392	909.96	905.45	901.08	896.59	1249.3	1215.3
x2 = 0.7127	888.59	884.08	879.74	875.23	1221.5	1188.6
x2 = 0.7799	867.19	862.71	858.37	853.88	1196.9	1164.8
x2 = 0.8417	845.72	841.26	836.92	832.43	1175.2	1143.6
x2 = 0.8986	824.22	819.77	815.43	810.91	1156.5	1124.8
x2 = 0.951	802.69	798.22	793.89	789.33	1140.6	1108.4

Cc1cccc(O)c1 [3-methylphenol] + CCO
Settings	mass density, 303.15 K [kg/m3]	mass density, 308.15 K [kg/m3]	mass density, 313.15 K [kg/m3]	mass density, 318.15 K [kg/m3]	speed of sound, 303.15 K [m/s]	speed of sound, 313.15 K [m/s]
x2 = 0	1025.71	1021.7	1017.69	1013.65	1466.1	1436.1
x2 = 0.14	1005.48	1001.45	997.42	993.36	1426.7	1398.2
x2 = 0.2637	985.23	981.17	977.1	972.97	1384.7	1355
x2 = 0.3738	964.94	960.82	956.72	952.53	1344.9	1313.8
x2 = 0.4724	944.63	940.47	936.35	932.08	1308.5	1276.5
x2 = 0.5612	924.32	920.08	915.95	911.64	1275.8	1243.4
x2 = 0.6417	903.96	899.68	895.51	891.18	1246.6	1214
x2 = 0.7149	883.56	879.25	875.06	870.68	1220.5	1188
x2 = 0.7817	863.15	858.83	854.61	850.21	1197.2	1164.7
x2 = 0.8431	842.67	838.32	834.07	829.62	1176.3	1143.9
x2 = 0.8995	822.2	817.81	813.53	809.06	1157.8	1125.3
x2 = 0.9517	801.66	797.22	792.9	788.34	1141.4	1108.7

Cc1ccc(O)cc1 [4-methylphenol] + CCO
Settings	mass density, 303.15 K [kg/m3]	mass density, 308.15 K [kg/m3]	mass density, 313.15 K [kg/m3]	mass density, 318.15 K [kg/m3]	speed of sound, 303.15 K [m/s]	speed of sound, 313.15 K [m/s]
x2 = 0	1026.47	1022.56	1018.64	1014.68	1473	1440.2
x2 = 0.1392	1006.2	1002.27	998.32	994.31	1435.7	1402.3
x2 = 0.2624	985.93	981.96	977.97	973.9	1392.4	1359.7
x2 = 0.3722	965.59	961.62	957.61	953.46	1350.4	1318.2
x2 = 0.4707	945.23	941.23	937.2	932.96	1311.9	1280
x2 = 0.5595	924.86	920.83	916.75	912.45	1277.5	1245.8
x2 = 0.6401	904.44	900.38	896.25	891.89	1247	1215.1
x2 = 0.7134	883.97	879.86	875.69	871.3	1220.1	1188
x2 = 0.7805	863.47	859.3	855.09	850.66	1196.3	1164
x2 = 0.8421	842.93	838.68	834.45	829.99	1175.3	1142.8
x2 = 0.8989	822.33	818.01	813.74	809.25	1156.8	1124.1
x2 = 0.9514	801.71	797.31	793.01	788.43	1140.8	1107.9

Reference: the NIST ThermoML archive (doi:10.1016/j.jct.2018.12.039)
